Patent US10723741B1, “DNA polymerase IIIC inhibitors and use thereof” (Acurx Pharmaceuticals, LLC, priority 2018, dated 2020)
≈ marks a conversion by molar mass, not a printed value. Read-outs that look alike come from different tables or passages of the source.

How the values were obtained:
Format in all cases: cell-based
[1] = tested on: Enterococcus faecalis ATCC 29212; experiment: Broth microdilution MIC, E. faecalis ATCC 29212; settings: ATCC29212, broth microdilution, 37° C., 20 hours, read-out: MIC E. faecalis ATCC 29212
Summary of the method: (§1)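 Broth microdilution in strain-specific test medium with ~5.0×10^5 cfu/ml inoculum, 1% DMSO and two-fold compound dilutions from 64 to 0.0625 μg/ml. Plates were held 20 hours at 37° C in ambient air. S. pneumoniae colonies were grown beforehand on blood agar in 5% CO2.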

[2] = tested on: Staphylococcus aureus NRS384 (MRSA); experiment: Broth microdilution MIC, S. aureus NRS384 (MRSA); settings: Staphylococcus aureus, broth microdilution, 37° C., 20 hours
Summary of the method: as §1

[3] = tested on: Enterococcus faecium ATCC 700221 (VRE); experiment: Broth microdilution MIC, E. faecium ATCC 700221 (VRE); settings: Enterococcus faecium, broth microdilution, 37° C., 20 hours
Summary of the method: as §1

[4] = tested on: Escherichia coli ATCC 25922; experiment: Broth microdilution MIC, E. coli ATCC 25922 (MHIIB w & w/o 4 mM EDTA); settings: broth microdilution, 37° C., 20 hours; for MIC: Escherichia coli, ATCC25922, without EDTA, read-out: MIC E. coli ATCC 25922; for MIC E. coli ATCC 25922 + 4 mM EDTA: with 4 mM EDTA
Summary of the method: as §1

[5] = tested on: Bacillus subtilis ATCC 6633; experiment: Broth microdilution MIC, B. subtilis ATCC 6633; settings: ATCC6633, broth microdilution, 37° C., 20 hours, read-out: MIC B. subtilis ATCC 6633
Summary of the method: as §1

[6] = tested on: Streptococcus pneumoniae ATCC 49619; experiment: Broth microdilution MIC, S. pneumoniae ATCC 49619; settings: ATCC49619, broth microdilution, 37° C., 20 hours, read-out: MIC S. pneumoniae ATCC 49619
Summary of the method: as §1

[7] = tested on: Staphylococcus aureus ATCC 29213 (MSSA); experiment: Broth microdilution MIC, S. aureus ATCC 29213 (MSSA); settings: broth microdilution, 37° C., 20 hours, read-out: MIC S. aureus ATCC 29213 (MSSA)
Summary of the method: as §1

[8] = S. aureus NRS 384, read-out: MIC NRS 384 (MRSA)
[9] = read-out: MIC E. faecium ATCC 700221 (VRE)
[10] = MHIIB, read-out: MIC against S. aureus NRS 384 (MRSA)
[11] = MHIIB, read-out: MIC against E. faecium ATCC 700221 (VRE)

Row | SMILES | MIC [1] [µg/mL] | MIC [2, 8] [µg/mL] | MIC [3, 9] [µg/mL] | MIC [4] [µg/mL] | MIC E. coli ATCC 25922 + 4 mM EDTA [4] [µg/mL] | MIC [5] [µg/mL] | MIC [6] [µg/mL] | MIC [7] [µg/mL] | MIC [2, 10] [µg/mL] | MIC [3, 11] [µg/mL]
1 | O=c1[nH]c(NCc2ccc(F)c(F)c2)nc2c(F)nn(CCOCCO)c12 [Compound 301, 5-((3,4-difluorobenzyl)amino)-3-fluoro-1-(2-(2-hydroxyethoxy)ethyl)-1H-pyrazolo[4,3-d]pyrimidin-7(6H)-one] | 8 (≈ 20.9 µM) | 4 (≈ 10.4 µM) | 4 (≈ 10.4 µM) | > 64 | >64 | 8 (≈ 20.9 µM) | 4 (≈ 10.4 µM) | 8 (≈ 20.9 µM) |  | 
2 | O=c1[nH]c(NCc2ccc(Cl)c(Cl)c2)nc2c(F)nn(Cc3cocn3)c12 [Compound 306, 5-((3,4-Dichlorobenzyl)amino)-3-fluoro-1-(oxazol-4-ylmethyl)-1H-pyrazolo[4,3-d]pyrimidin-7(6H)-one] | 2 (≈ 4.89 µM) | 2 (≈ 4.89 µM) | 1 (≈ 2.44 µM) | > 64 | >64 | 0.5 (≈ 1.22 µM) | 4 (≈ 9.77 µM) | 2 (≈ 4.89 µM) |  | 
3 | COCCn1nc(F)c2nc(NCc3ccc(F)c(F)c3)[nH]c(=O)c21 [Compound 308, 5-((3,4-Difluorobenzyl)amino)-3-fluoro-1-(2-methoxyethyl)-1H-pyrazolo[4,3-d]pyrimidin-7(6H)-one] | 8 (≈ 22.6 µM) | 4 (≈ 11.3 µM) | 4 (≈ 11.3 µM) | > 64 | >64 | 2 (≈ 5.66 µM) | 4 (≈ 11.3 µM) | 4 (≈ 11.3 µM) |  | 
4 | O=c1[nH]c(NCc2ccc(F)c(F)c2)nc2c(Cl)nn(CCOCCO)c12 [Compound 309, 3-Chloro-5-[(3,4-difluorophenyl)methylamino]-1-[2-(2-hydroxyethoxy)ethyl]-6H-pyrazolo[4,3-d]pyrimidin-7-one] | 32 (≈ 80 µM) | 16 (≈ 40 µM) | 16 (≈ 40 µM) | > 64 | >64 | 8 (≈ 20 µM) | 8 (≈ 20 µM) | 16 (≈ 40 µM) |  | 
5 | O=c1[nH]c(NCc2ccc(F)c(F)c2)nc2c(F)nn(CC3CCO3)c12 (stereo not drawn) [Compound 315, 5-[(3,4-difluorophenyl)methylamino]-3-fluoro-1-(oxetan-2-ylmethyl)-6H-pyrazolo[4,3-d]pyrimidin-7-one] | 8 (≈ 21.9 µM) | 4 (≈ 10.9 µM) | 2 (≈ 5.47 µM) | > 64 | >64 | 1 (≈ 2.74 µM) | 2 (≈ 5.47 µM) | 4 (≈ 10.9 µM) |  | 
6 | O=C(c1cccnc1)N1CCC(n2nc(F)c3nc(NCc4ccc(Cl)c(Cl)c4)[nH]c(=O)c32)CC1 [Compound 317, 5-[(3,4-Dichlorophenyl)methylamino]-3-fluoro-1-[1-(pyridine-3-carbonyl)-4-piperidyl]-6H-pyrazolo[4,3-d]pyrimidin-7-one] | 4 (≈ 7.75 µM) | 4 (≈ 7.75 µM) | 2 (≈ 3.87 µM) | > 64 | >64 | 1 (≈ 1.94 µM) | 4 (≈ 7.75 µM) | 4 (≈ 7.75 µM) |  | 

Other lines, results leading:

Row | MIC [1] [µg/mL] | MIC [2, 8] [µg/mL] | MIC [3, 9] [µg/mL] | MIC [4] [µg/mL] | MIC E. coli ATCC 25922 + 4 mM EDTA [4] [µg/mL] | MIC [5] [µg/mL] | MIC [6] [µg/mL] | MIC [7] [µg/mL] | MIC [2, 10] [µg/mL] | MIC [3, 11] [µg/mL] | SMILES
7 | 2 (≈ 4.8 µM) | 2 (≈ 4.8 µM) | 1 (≈ 2.4 µM) | > 64 | >64 | 0.5 (≈ 1.2 µM) | 2 (≈ 4.8 µM) | 2 (≈ 4.8 µM) |  |  | O=c1[nH]c(NCc2ccc(Cl)c(Cl)c2)nc2c(F)nn(CCOCCO)c12 [Compound 302, 5-[(3,4-Dichlorophenyl)methylamino]-3-fluoro-1-[2-(2-hydroxyethoxy)ethyl]-6H-pyrazolo[4,3-d]pyrimidin-7-one]
8 | 2 (≈ 4.62 µM) | 2 (≈ 4.62 µM) | 1 (≈ 2.31 µM) | > 64 | >64 | 0.5 (≈ 1.16 µM) | 2 (≈ 4.62 µM) | 2 (≈ 4.62 µM) |  |  | O=c1[nH]c(NCc2ccc(Cl)c(Cl)c2)nc2c(Cl)nn(CCOCCO)c12 [Compound 303, 3-Chloro-5-[(3,4-dichlorophenyl)methylamino]-1-[2-(2-hydroxyethoxy)ethyl]-6H-pyrazolo[4,3-d]pyrimidin-7-one]
9 | 2 (≈ 4.97 µM) | 1 (≈ 2.48 µM) | 0.5 (≈ 1.24 µM) | > 64 | >64 | 0.5 (≈ 1.24 µM) | 2 (≈ 4.97 µM) | 1 (≈ 2.48 µM) | ≤ 1 | ≤ 1 | COCCn1nc(Cl)c2nc(NCc3ccc(Cl)c(Cl)c3)[nH]c(=O)c21 [Compound 304, 3-Chloro-5-((3,4-dichlorobenzyl)amino)-1-(2-methoxyethyl)-1H-pyrazolo[4,3-d]pyrimidin-7(6H)-one]
10 | 2 (≈ 5.18 µM) | 1 (≈ 2.59 µM) | 1 (≈ 2.59 µM) | > 64 | >64 | 0.5 (≈ 1.29 µM) | 4 (≈ 10.4 µM) | 1 (≈ 2.59 µM) | ≤ 1 | ≤ 1 | COCCn1nc(F)c2nc(NCc3ccc(Cl)c(Cl)c3)[nH]c(=O)c21 [Compound 305, 5-((3,4-Dichlorobenzyl)amino)-3-fluoro-1-(2-methoxyethyl)-1H-pyrazolo[4,3-d]pyrimidin-7(6H)-one]
11 | 2 (≈ 4.7 µM) | 1 (≈ 2.35 µM) | 1 (≈ 2.35 µM) | > 64 | >64 | 0.5 (≈ 1.17 µM) | 4 (≈ 9.4 µM) | 1 (≈ 2.35 µM) | ≤ 1 | ≤ 1 | O=c1[nH]c(NCc2ccc(Cl)c(Cl)c2)nc2c(Cl)nn(Cc3cocn3)c12 [Compound 307, 3-Chloro-5-((3,4-dichlorobenzyl)amino)-1-(oxazol-4-ylmethyl)-1H-pyrazolo[4,3-d]pyrimidin-7(6H)-one]
12 | 16 (≈ 42.2 µM) | 16 (≈ 42.2 µM) | 16 (≈ 42.2 µM) | > 64 | >64 | 8 (≈ 21.1 µM) | 32 (≈ 84.4 µM) | 16 (≈ 42.2 µM) |  |  | Cc1cc(CNc2nc3c(F)nn(CCOCCO)c3c(=O)[nH]2)ccc1F [Compound 311, 3-Fluoro-5-((4-fluoro-3-methylbenzyl)amino)-1-(2-(2-hydroxyethoxy)ethyl)-1H-pyrazolo[4,3-d]pyrimidin-7(6H)-one]
13 | 16 (≈ 42.2 µM) | 16 (≈ 42.2 µM) | 8 (≈ 21.1 µM) | > 64 | >64 | 2 (≈ 5.27 µM) | 8 (≈ 21.1 µM) | 8 (≈ 21.1 µM) |  |  | Cc1ccc(CNc2nc3c(F)nn(CCOCCO)c3c(=O)[nH]2)cc1F [Compound 313, 3-Fluoro-5-((3-fluoro-4-methylbenzyl)amino)-1-(2-(2-hydroxyethoxy)ethyl)-1H-pyrazolo[4,3-d]pyrimidin-7(6H)-one]
14 | > 64 | 32 (≈ 74.9 µM) | 32 (≈ 74.9 µM) | > 64 | >64 | 16 (≈ 37.4 µM) | 16 (≈ 37.4 µM) | 64 (≈ 150 µM) |  |  | CP(C)(=O)CCCCn1nc(F)c2nc(NCc3ccc(F)c(F)c3)[nH]c(=O)c21 [Compound 314, 5-[(3,4-Difluorophenyl)methylamino]-1-(4-dimethylphosphorylbutyl)-3-fluoro-6H-pyrazolo[4,3-d]pyrimidin-7-one]
15 | 8 (≈ 21.3 µM) | 2 (≈ 5.31 µM) | 4 (≈ 10.6 µM) | > 64 | >64 | 2 (≈ 5.31 µM) | 2 (≈ 5.31 µM) | 4 (≈ 10.6 µM) |  |  | O=c1[nH]c(NCc2ccc(F)c(F)c2)nc2c(F)nn(Cc3cocn3)c12 [Compound 316, 5-((3,4-Difluorobenzyl)amino)-3-fluoro-1-(oxazol-4-ylmethyl)-1H-pyrazolo[4,3-d]pyrimidin-7(6H)-one]
